From publication PMC10933438, “Inhibition of urease-mediated ammonia production by 2-octynohydroxamic acid in hepatic encephalopathy” (Nature Communications, 2024)

Experiments:
Jack bean urease [1] = molecular target: T1, Jack bean urease (Canavalia ensiformis, UniProt P07374); assay: cell-free pH-based (phenol red) urease activity assay; ΔT50 at […] inhibitor; type: biochemical
Jack bean urease [2] = molecular target: T1, Jack bean urease; assay: cell-free pH-based (phenol red) urease activity assay; delay of half-maximal absorbance at […] inhibitor (ΔT50); type: biochemical

T1 sequence (P07374 whole entry, looked up): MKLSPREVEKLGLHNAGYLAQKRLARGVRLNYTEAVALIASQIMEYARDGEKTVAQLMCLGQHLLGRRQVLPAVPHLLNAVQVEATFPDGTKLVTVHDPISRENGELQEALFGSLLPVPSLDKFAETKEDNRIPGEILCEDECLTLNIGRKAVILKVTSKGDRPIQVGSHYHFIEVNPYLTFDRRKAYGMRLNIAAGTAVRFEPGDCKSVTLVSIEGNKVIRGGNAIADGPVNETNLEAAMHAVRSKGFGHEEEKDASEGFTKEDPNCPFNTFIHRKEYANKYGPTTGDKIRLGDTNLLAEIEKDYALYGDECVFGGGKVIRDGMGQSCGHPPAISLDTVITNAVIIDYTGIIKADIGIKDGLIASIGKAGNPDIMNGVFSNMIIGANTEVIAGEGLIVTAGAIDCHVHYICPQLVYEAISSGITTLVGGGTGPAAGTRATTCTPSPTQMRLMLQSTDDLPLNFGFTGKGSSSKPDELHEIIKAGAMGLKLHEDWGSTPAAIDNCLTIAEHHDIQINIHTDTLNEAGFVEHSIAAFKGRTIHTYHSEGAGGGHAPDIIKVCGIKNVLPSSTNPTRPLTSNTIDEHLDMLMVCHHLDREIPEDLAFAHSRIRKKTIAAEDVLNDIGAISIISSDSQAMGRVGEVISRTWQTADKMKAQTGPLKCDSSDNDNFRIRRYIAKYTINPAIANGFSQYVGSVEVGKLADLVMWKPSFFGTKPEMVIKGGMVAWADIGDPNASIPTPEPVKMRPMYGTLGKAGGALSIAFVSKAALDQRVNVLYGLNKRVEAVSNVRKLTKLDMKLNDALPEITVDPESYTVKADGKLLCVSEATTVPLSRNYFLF

SMILES	cell-free pH-based (phenol red) urease activity assay; ΔT50 at 0.1 mM inhibitor (Jack bean urease [1]) [min]	cell-free pH-based (phenol red) urease activity assay; delay of half-maximal abs (Jack bean urease [2]) [min]
CC(=O)NO [AHA, acetohydroxamic acid]	2.8 ± 0.6	–
CCCCCC#CC(=O)NO [2-octynoHA, 2-octynohydroxamic acid]	–	47.9 ± 2.6
CCCCCCCC(=O)NO [OHA, octanohydroxamic acid]	3.0 ± 1.6	–
